Read-outs that look alike come from different tables or passages of the source. One block for each compound: values may come before it.
What was measured:
[1] = target: T1, rhesus HPH3 (Macaca mulatta, UniProt H9FPE4); assay: HPH enzyme TR-FRET assay (VBC-recognition of hydroxylated HIF peptide), HPH3; type: biochemical; settings: inhibitory activity against rhesus HPH3
T1 construct: fused on or other part: C-terminal GST tag used for purification and removed with thrombin before the assay

[2] = test system: recombinant rhesus HPH protein; assay: HPH enzyme activity assay, effect of cofactors and metal ions (isoform not given); type: biochemical, rhesus (Macaca mulatta)
[3] = target: rhesus HPH1 (Macaca mulatta, UniProt I2CX88); assay: biochemical
rhesus HPH1, sequence (I2CX88 1-426): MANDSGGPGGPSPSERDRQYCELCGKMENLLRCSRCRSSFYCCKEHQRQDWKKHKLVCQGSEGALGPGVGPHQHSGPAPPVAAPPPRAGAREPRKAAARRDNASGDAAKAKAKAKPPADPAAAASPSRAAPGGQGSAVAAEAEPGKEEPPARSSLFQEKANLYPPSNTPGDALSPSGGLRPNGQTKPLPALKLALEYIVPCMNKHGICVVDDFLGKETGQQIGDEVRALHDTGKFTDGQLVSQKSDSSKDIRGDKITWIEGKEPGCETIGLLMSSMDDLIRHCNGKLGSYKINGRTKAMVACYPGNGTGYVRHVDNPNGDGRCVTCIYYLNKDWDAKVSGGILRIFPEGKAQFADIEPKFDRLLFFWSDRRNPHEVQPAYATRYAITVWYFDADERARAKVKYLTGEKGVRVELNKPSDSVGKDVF
Description: (§1) The VBC protein complex was generated by co-expression of Glutathione S-Transferase-VHL (von Hippel Lindau), elongin B and elongin C in Escherichia coli followed by purification of the complex using glutathione affinity resin and size-exclusion chromatography. The HPH enzyme assay is conducted in the well of a 96- or 384-well plate. […] The time-resolved fluorescent signal (excitation at 330 nm; emission at 620 and 665 nm) is read on a plate reader after 1 h of incubation. The ratio of signal at 665 nm to 620 nm is used to calculate the amount of peptide interaction with GST-VBC as a measure of protein hydroxylation.
(§2) The activity of the HPH proteins was measured using an assay dependent upon VBC-recognition of a hydroxylated peptide. The VBC protein complex was generated by co-expression of Glutathione S-Transferase-VHL (von Hippel Lindau), elongin B and elongin C in Escherichia coli followed by purification of the complex using glutathione affinity resin and size-exclusion chromatography. The HPH enzyme assay is conducted in the well of a 96- or 384-well plate. […] The ratio of signal at 665 nm to 620 nm is used to calculate the amount of peptide interaction with GST-VBC as a measure of protein hydroxylation.

[4] = target: rhesus HPH2 (Macaca mulatta, UniProt I2CX88); settings: read-out: IC50 HPH2; inhibitory activity against rhesus HPH2
rhesus HPH2, sequence (I2CX88 1-426): as above
Description: as §1, §2

- IC50 [1]: 0.66 µM
Structure (SMILES): O=C(O)CNC(=O)C(=O)O [N-oxalylglycine]

Structure (SMILES): [Fe+2] [ferrous iron]
- effect of addition on enzyme activity ([2]; recombinant rhesus HPH, isoform not stated): increased the activity of the enzyme

Structure (SMILES): [Cl-].[Cl-].[Co+2] [CoCl2]
- effect of addition on enzyme activity [2]: inhibited enzyme activity

Structure (SMILES): NNc1nncc2ccccc12 [Hydralazine]
- IC50 [1]: 54 µM
- IC50 [3]: 400 µM

Structure (SMILES): O=C(O)CCC(=O)O [Succinate]
- IC50 [1]: 80 µM
- IC50 ([3]; read-out: IC50 HPH1, inhibitory activity against rhesus HPH1): 200 µM
- IC50 [4]: 380 µM

From patent publication US20100240065A1, “Prolyl Hydroxylase Compositions and Methods of Use Thereof” (Boehringer Ingelheim International GmbH, priority 2009, published 2010)
